Data: US10087148B2, “Quinazolines as biogenic amine transport modulators” (THE UNITED STATES OF AMERICA AS REPRESENTED BY THE …, priority 2014, dated 2018)

biological target: dopamine transporter (DAT) (Rattus norvegicus (Rat), UniProt P23977); assay: [3H]dopamine (DA) uptake inhibition in rat brain (caudate) synaptosomes; type: biochemical; settings: not given
Method: Uptake inhibition assay for the dopamine transporter was conducted in rat brain synaptosomes as described elsewhere with minor modifications (Rothman et al., Synapse 39, 32-41 (2001)). Freshly removed caudate was homogenized in 10% ice-cold sucrose with 12 strokes of a hand-held Potter-Elvehjem homogenizer followed by centrifugation at 1000×g for 10 min. The supernatants were saved on ice and used immediately. Transporter activity was assessed using 5 nM [^3H]dopamine. The assay buffer was Krebs-phosphate buffer containing 154.4 mM NaCl, 2.9 mM KCl, 1.1 mM CaCl2, 0.83 mM MgCl2, 5 mM glucose, 1 mg/mL ascorbic acid, and 50 μM pargyline. The selectivity of the uptake assay for DAT was optimized by including 100 nM citalopram and 100 nM desipramine as blockers of SERT and NET in the sucrose solution and assay buffer. Uptake inhibition assays were conducted at 25° C. and were initiated by adding 100 μl of tissue to 900 μL assay buffer containing test drug and [^3H]dopamine. Test drugs were diluted in assay buffer containing 1 mg/mL bovine serum albumin. Nonspecific uptake was measured by incubating in the presence of 10 μM indatraline. The reactions were stopped after 15 minutes by rapid vacuum filtration with a cell harvester (BRANDEL) over GF/B filters (Whatman) presoaked in wash buffer maintained at 25° C. (10 mM Tris-HCl, pH 7.4/150 mM NaCl). Filters were rinsed with 6 mL wash buffer and retained tritium was quantified by a MicroBeta liquid scintillation counter (PerkinElmer) after overnight extraction in 0.6 mL of liquid scintillation cocktail (Cytoscint, ICN). The data from three experiments were pooled and fit to a dose-response curve equation (using Kaleidagraph), to yield an Emax and EC50 value.
All of the test compounds were synthesized as described herein. Next, 8-point dose-response curves were generated for each compound (1-20,000 nM) in the [^3H]DA uptake assay. The data from three experiments were pooled and fit to a dose-response curve equation (using KaleidaGraph; Synergy Software, Reading, Pa.) to yield an Emax and IC50 value. […] Selected compounds were also tested for their ability to inhibit [^3H]WIN35428 binding to rat caudate DAT.

Chain of dopamine transporter (DAT) (P23977 whole entry): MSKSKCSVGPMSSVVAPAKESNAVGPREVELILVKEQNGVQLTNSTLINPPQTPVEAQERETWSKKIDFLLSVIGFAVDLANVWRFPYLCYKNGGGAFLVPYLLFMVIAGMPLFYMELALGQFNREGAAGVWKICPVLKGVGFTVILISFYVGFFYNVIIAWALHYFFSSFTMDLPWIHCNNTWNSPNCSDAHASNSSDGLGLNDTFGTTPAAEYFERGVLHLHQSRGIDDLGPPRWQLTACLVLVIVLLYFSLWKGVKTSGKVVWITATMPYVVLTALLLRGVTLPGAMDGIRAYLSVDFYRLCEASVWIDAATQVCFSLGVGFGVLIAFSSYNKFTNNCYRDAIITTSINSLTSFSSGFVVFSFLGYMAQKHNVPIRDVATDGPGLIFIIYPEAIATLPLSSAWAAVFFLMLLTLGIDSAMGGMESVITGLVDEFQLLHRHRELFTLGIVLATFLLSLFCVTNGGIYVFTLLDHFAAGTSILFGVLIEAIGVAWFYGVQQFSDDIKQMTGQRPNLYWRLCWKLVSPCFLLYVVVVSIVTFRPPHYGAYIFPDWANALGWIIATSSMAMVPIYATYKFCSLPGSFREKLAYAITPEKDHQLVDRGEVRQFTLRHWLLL

Efficacy of [3H]DA (DAT) uptake inhibition, in words | SMILES
partial inhibitors | c1ccc(C(CNc2nc(-c3ccc4c(c3)CCN4)nc3ccccc23)c2ccccc2)cc1 [SRI-29986]

same assay, conditions: [3H]DA uptake, one-component fit

One-Site Emax | SMILES
75 ± 3 % I | c1ccc(C(CNc2nc(-c3ccc4c(c3)CCN4)nc3ccccc23)c2ccccc2)cc1 [SRI-29986]

same assay, conditions: [3H]DA uptake, two-component fit, component 1

Two-Site Emax-1 | SMILES
37 × 10^8 ± 2.7 × 10^8 % I | c1ccc(C(CNc2nc(-c3ccc4c(c3)CCN4)nc3ccccc23)c2ccccc2)cc1 [SRI-29986]

same assay, conditions: [3H]DA uptake, two-component fit, component 2

Two-Site Emax-2 | SMILES
37 × 10^8 ± 0.7 × 10^8 % I | c1ccc(C(CNc2nc(-c3ccc4c(c3)CCN4)nc3ccccc23)c2ccccc2)cc1 [SRI-29986]

same assay, conditions: rat caudate synaptosomes, 5 nM [3H]dopamine, mean ± SD

DA Uptake Emax | EC50 | SMILES
84 ± 5 % I | 30 ± 10 nM | CC(C)C(CNc1nc(-c2ccc(N(C)C)cc2)nc2ccccc12)c1ccccc1 (stereo not drawn) [Compound 44, 2-(4-(dimethylamino)phenyl)-N-(3-methyl-2-phenylbutyl)quinazolin-4-amine]
91 ± 4 % I | 22 ± 6 nM | CN(C)c1ccc(-c2nc(NCC(c3ccccc3)c3ccccn3)c3ccccc3n2)cc1 (stereo not drawn) [Compound 3, 2-(4-(dimethylamino)phenyl)-N-(2-phenyl-2-(pyridin-2-yl)ethyl)quinazolin-4-amine]
70 ± 4 % I | 75 ± 22 nM | CN(C)c1ccc(-c2nc(NC(CCc3ccccc3)c3ccccc3)c3ccccc3n2)cc1 (stereo not drawn) [Compound 43, 2-(4-(dimethylamino)phenyl)-N-(1,3-diphenylpropyl)quinazolin-4-amine]
67 ± 2 % I | 30 ± 5 nM | CS(=O)(=O)Nc1ccc(-c2nc(NCC(Oc3ccccc3)c3ccccc3)c3ccccc3n2)cc1 (stereo not drawn) [Compound 49, N-(4-(4-((2-phenoxy-2-phenylethyl)amino)quinazolin-2-yl)phenyl)methanesulfonamide]
91 ± 3 % I | 117 ± 22 nM | CN(C)c1ccc(-c2nc(NCC(c3ccccc3)c3ncccn3)c3ccccc3n2)cc1 (stereo not drawn) [Compound 9, 2-(4-(dimethylamino)phenyl)-N-(2-phenyl-2-(pyrimidin-2-yl)ethyl)quinazolin-4-amine]
86 ± 6 % I | 159 ± 54 nM | CS(=O)(=O)Nc1ccc(-c2nc(NCCc3ccccc3)c3ccccc3n2)cc1 [Compound 37, N-(4-(4-(phenethylamino)quinazolin-2-yl)phenyl)methanesulfonamide]
69 ± 3 % I | 50 ± 14 nM | CS(=O)(=O)Nc1ccc(-c2nc(NC(Cc3ccccc3)c3ccccc3)c3ccccc3n2)cc1 (stereo not drawn) [Compound 41, N-(4-(4-((1,2-diphenylethyl)amino)quinazolin-2-yl)phenyl)methanesulfonamide]
75 ± 2 % I | 16 ± 2 nM | CS(=O)(=O)Nc1ccc(-c2nc(NCC(c3ccccc3)C3CCCCC3)c3ccccc3n2)cc1 (stereo not drawn) [Compound 6, N-(4-(4-((2-cyclohexyl-2-phenylethyl)amino)quinazolin-2-yl)phenyl)methanesulfonamide]
70 ± 3 % I | 100 ± 22 nM | CS(=O)(=O)Nc1ccc(-c2nc(NCC(c3ccccc3)n3ccnc3)c3ccccc3n2)cc1 (stereo not drawn) [Compound 12, N-(4-(4-((2-(1H-imidazol-1-yl)-2-phenylethyl)amino)quinazolin-2-yl)phenyl)methanesulfonamide]
73 ± 3 % I | 379 ± 80 nM | CS(=O)(=O)Nc1ccc(-c2nc(NCC(c3ccccn3)c3ccc[nH]3)c3ccccc3n2)cc1 (stereo not drawn) [Compound 32, N-(4-(4-((2-(pyridin-2-yl)-2-(1H-pyrrol-2-yl)ethyl)amino)quinazolin-2-yl)phenyl)methanesulfonamide]
72 ± 2 % I | 71 ± 11 nM | CS(=O)(=O)Nc1ccc(-c2nc(NC(CCc3ccccc3)c3ccccc3)c3ccccc3n2)cc1 (stereo not drawn) [Compound 42, N-(4-(4-((1,3-diphenylpropyl)amino)quinazolin-2-yl)phenyl)methanesulfonamide]
67 ± 2 % I | 16 ± 3 nM | CC(CNc1nc(-c2ccc(NS(C)(=O)=O)cc2)nc2ccccc12)(c1ccccc1)c1ccccc1 [Compound 39, N-(4-(4-((2,2-diphenylpropyl)amino)quinazolin-2-yl)phenyl)methanesulfonamide]
90 ± 3 % I | 50 ± 10 nM | CS(=O)(=O)Nc1ccc(-c2nc(NCC(c3ccccc3)c3ccccn3)c3ccccc3n2)cc1 (stereo not drawn) [Compound 2, N-(4-(4-((2-phenyl-2-(pyridin-2-yl)ethyl)amino)quinazolin-2-yl)phenyl)methanesulfonamide]
88 ± 4 % I | 34 ± 9 nM | CN(C)c1ccc(-c2nc(NCC(c3ccccc3)N3CCCCC3)c3ccccc3n2)cc1 (stereo not drawn) [Compound 16, 2-(4-(dimethylamino)phenyl)-N-(2-phenyl-2-(piperidin-1-yl)ethyl)quinazolin-4-amine]
78 ± 3 % I | 39 ± 9 nM | CN(C)c1ccc(-c2nc(NCC(Cc3ccccc3)c3ccccc3)c3ccccc3n2)cc1 (stereo not drawn) [Compound 26, 2-(4-(dimethylamino)phenyl)-N-(2,3-diphenylpropyl)quinazolin-4-amine]
100 % I | 380 nM | Cc1ccc(-c2nc(NCC(c3ccccc3)c3cccc(Cl)n3)c3ccccc3n2)cc1 (stereo not drawn) [Compound 1, N-(2-(6-chloropyridin-2-yl)-2-phenylethyl)-2-(p-tolyl)quinazolin-4-amine]
76 ± 2 % I | 58 ± 9 nM | CS(=O)(=O)Nc1ccc(-c2nc(NCC(Cc3ccccc3)c3ccccc3)c3ccccc3n2)cc1 (stereo not drawn) [Compound 27, N-(4-(4-((2,3-diphenylpropyl)amino)quinazolin-2-yl)phenyl)methanesulfonamide]
77 ± 4 % I | 5.6 ± 2.1 nM | CN(C)c1ccc(-c2nc(NCC(c3ccccc3)c3ccc[nH]3)c3ccccc3n2)cc1 (stereo not drawn) [Compound 14, 2-(4-(dimethylamino)phenyl)-N-(2-phenyl-2-(1H-pyrrol-2-yl)ethyl)quinazolin-4-amine]
73 ± 2 % I | 25 ± 4 nM | CS(=O)(=O)Nc1ccc(-c2nc(NCC(c3ccccc3)c3cccnc3)c3ccccc3n2)cc1 (stereo not drawn) [Compound 25, N-(4-(4-((2-phenyl-2-(pyridin-3-yl)ethyl)amino)quinazolin-2-yl)phenyl)methanesulfonamide]
78 ± 3 % I | 21 ± 5 nM | CN(C)c1ccc(-c2nc(NCC(c3ccncc3)c3ccncc3)c3ccccc3n2)cc1 [Compound 34, N-(2,2-di(pyridin-4-yl)ethyl)-2-(4-(dimethylamino)phenyl)quinazolin-4-amine]
70 ± 2 % I | 47 ± 10 nM | CS(=O)(=O)Nc1ccc(-c2nc(NCC(c3ccncc3)c3ccncc3)c3ccccc3n2)cc1 [Compound 35, N-(4-(4-((2,2-di(pyridin-4-yl)ethyl)amino)quinazolin-2-yl)phenyl)methanesulfonamide]
74 ± 2 % I | 6.7 ± 1.4 nM | CN(C)c1ccc(-c2nc(NCC(O)(c3ccccc3)c3ccccc3)c3ccccc3n2)cc1 [Compound 5, 2-((2-(4-(dimethylamino)phenyl)quinazolin-4-yl)amino)-1,1-diphenylethanol]
86 ± 3 % I | 138 ± 21 nM | CN(C)c1ccc(-c2nc(NCC(c3ccccc3)n3ccnc3)c3ccccc3n2)cc1 (stereo not drawn) [Compound 13, N-(2-(1H-imidazol-1-yl)-2-phenylethyl)-2-(4-(dimethylamino)phenyl)quinazolin-4-amine]
88 ± 3 % I | 477 ± 75 nM | CS(=O)(=O)Nc1ccc(-c2nc(NCC(c3ccccc3)c3ncccn3)c3ccccc3n2)cc1 (stereo not drawn) [Compound 8, N-(4-(4-((2-phenyl-2-(pyrimidin-2-yl)ethyl)amino)quinazolin-2-yl)phenyl)methanesulfonamide]
84 ± 5 % I | 18 ± 7 nM | Cc1cc(N(C)C)ccc1-c1nc(NCC(c2ccccc2)c2ccc(CO)[nH]2)c2ccccc2n1 (stereo not drawn) [Compound 28, (5-(2-((2-(4-(dimethylamino)-2-methylphenyl)quinazolin-4-yl)amino)-1-phenylethyl)-1H-pyrrol-2-yl)methanol]
79 ± 5 % I | 160 ± 51 nM | CS(=O)(=O)Nc1ccc(-c2nc(NCC(c3ccccc3)N3CCCC3)c3ccccc3n2)cc1 (stereo not drawn) [Compound 20, N-(4-(4-((2-phenyl-2-(pyrrolidin-1-yl)ethyl)amino)quinazolin-2-yl)phenyl)methanesulfonamide]
79 ± 3 % I | 24 ± 5 nM | CN(C)c1ccc(-c2nc(NCC(c3ccccc3)c3cccnc3)c3ccccc3n2)cc1 (stereo not drawn) [Compound 24, 2-(4-(dimethylamino)phenyl)-N-(2-phenyl-2-(pyridin-3-yl)ethyl)quinazolin-4-amine]
93 ± 1 % I | 243 ± 18 nM | CCN(CC)C(=O)[C@]1(c2ccccc2)C[C@@H]1CNc1nc(-c2ccc(N(C)C)cc2)nc2ccccc12 [Compound 46, (1R,2S)-2-(((2-(4-(dimethylamino)phenyl)quinazolin-4-yl)amino)methyl)-N,N-diethyl-1-phenylcyclopropanecarboxamide]
